Measurements from article PMC12799421, “Inhibition of constitutive activity of the atypical chemokine receptor 3 by the small-molecule inverse agonist VUF16840” (Molecular Pharmacology, 2025).

Tests used:
Type in all cases: cell-based
[1] = biological target: T1, ACKR3 (Homo sapiens, UniProt P25106); assay: NanoBiT clathrin A/β-arrestin2 interaction in ACKR3-expressing HEK293T cells
T1 construct: expressed in transfected cells; host or cells: HEK293T
Experimental: (§1) For 1·10^6 HEK293T cells, a transfection mix consisting of 2 μg plasmid DNA, 12 μg linear PEI in a total volume of 200 μL 150 mM NaCl was made and thoroughly vortexed. The transfection mix was incubated for 15 minutes and consequently added to a cell suspension with a final concentration of 3·10^5 cells/mL. For functional studies this cell suspension was immediately transferred to a poly-L-lysine-coated white 96-well plate, with 3·10^4 cells per well. […] For BRET-based membrane localization experiments, the 2 μg plasmid DNA consisted of ACKR3-NL (0.05 μg), mVenus-CAAX (0.25 μg), and pcDEF3 vector DNA without insert (1.7 μg).
(§2) Two days after transfection (vide supra), medium was aspirated and cells were reconstituted in HBSS with 0.05% BSA. […] After treating the cell with ligand furimazine was added (310 times diluted from stock concentration). Cells were incubating at 37 °C for another 3 minutes before detection of bioluminescent intensities.
(§3) Bioluminescence was measured using the PHERAstar-FSX and is a measure for the relative proximity of LgBiT- and SmBiT-tagged proteins and thus the occurrence of investigated protein–protein interaction.[38]
Fig. 5 Inhibition of both constitutive as well as agonist-induced ACKR3 activity by VUF16840. HEK293T cells were stimulated with increasing concentrations of VUF15485 or VUF16840 only (A–D), or increasing concentrations of VUF16840 in the presence of 100 nM VUF15485 (E–H). The resulting proximity between ACKR3 and β-arrestin1 (A, E), GRK2 (B, F), or Rab5a (C, G) was determined by bioluminescence resonance energy transfer. Furthermore, an interaction between clathrin A and β-arrestin2 was measured by NLuc complementation, as was determined by quantifying the relative light units (D, H). Depicted data is normalized as fold-basal and represents the mean ± SD of N experiments with triplicate measurements per experiment. N is specified in Supplemental Table 1.

[2] = biological target: T1, ACKR3; assay: NanoBiT-complementation β-arrestin2 recruitment to hACKR3 in HEK293T cells; settings: for EC50: * VUF16840 as inverse agonist, 15 minutes incubation, read-out: β-arrestin2 NanoBit pEC50 (converted)
Experimental: as §1, §2
To determine the insurmountable antagonism of VUF16840, medium of transfected cells was aspirated and cells were reconstituted in HBSS with 20 mM HEPES and 0.1% BSA. Cells were incubated with VUF16840 or buffer for 60 minutes after which furimazine was added and cells were incubated for another 5 minutes, all at 37 °C.
as §3
Mean pIC50 values were determined by averaging fitted values from individual experiments. Graphs depict the pooled data of all experiments. Similarly, sigmoidal, ligand-induced concentration-dependent activation or inhibition of the proximity between ACKR3 and the protein of interest was analyzed using GraphPad Prism 8, by fitting a 3-parameter concentration-response model to the data, to determine pEC50/pIC50 values. Mean pEC50 values and pIC50 values were determined by averaging fitted values from individual experiments. Graphs depict the pooled data of all experiments, for which values are normalized, per experiment, to the fold difference compared with basal signal.

[3] = biological target: T1, ACKR3; assay: ACKR3 signaling and trafficking sensor assays summarised together (β-arrestin1, GRK2, Rab5a, clathrin A)
Experimental: as §1
Next, it was explored whether VUF16840 could also affect a number of additional ACKR3 signaling or trafficking events. Both β-arrestin1 and GRK2 are known to be recruited to hACKR3 upon activation,[10]^,[23]^,[45],[46] and phosphorylation of the C-terminus is found to be crucial for ACKR3 internalization and β-arrestin1/2 recruitment,[10]^,[47]^,[48] mediated at least in part by GRK2.[10]^,[47] Additionally, clathrin A is a structural protein involved in the formation of clathrin-coated vesicles mediating receptor packaging and internalization, whereas Rab5a is a protein highly expressed in early endosomes.[32]^,[49] […] Agonist-induced internalization of ACKR3 was further monitored by measuring the interaction between clathrin A and β-arrestin 2 using a NanoBiT-based protein–protein interaction assay (Fig. 5D).
Fig. 5 Inhibition of both constitutive as well as agonist-induced ACKR3 activity by VUF16840. […] The resulting proximity between ACKR3 and β-arrestin1 (A, E), GRK2 (B, F), or Rab5a (C, G) was determined by bioluminescence resonance energy transfer. Furthermore, an interaction between clathrin A and β-arrestin2 was measured by NLuc complementation, as was determined by quantifying the relative light units (D, H). […]

[4] = biological target: CCR3 (Homo sapiens, UniProt P51677); assay: NanoBiT β-arrestin2 recruitment to CCR3, concentration-response
CCR3, sequence (P51677 whole entry): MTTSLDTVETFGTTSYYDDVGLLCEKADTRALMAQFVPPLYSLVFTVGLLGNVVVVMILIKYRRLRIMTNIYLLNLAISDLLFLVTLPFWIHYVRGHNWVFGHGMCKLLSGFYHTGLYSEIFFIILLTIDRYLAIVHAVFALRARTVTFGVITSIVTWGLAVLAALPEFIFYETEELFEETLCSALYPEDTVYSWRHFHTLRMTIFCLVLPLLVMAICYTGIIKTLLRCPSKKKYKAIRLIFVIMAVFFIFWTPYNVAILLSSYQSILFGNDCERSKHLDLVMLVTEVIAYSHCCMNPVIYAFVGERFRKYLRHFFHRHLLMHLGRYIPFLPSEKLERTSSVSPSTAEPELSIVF
CCR3, sequence (P32121 whole entry partner): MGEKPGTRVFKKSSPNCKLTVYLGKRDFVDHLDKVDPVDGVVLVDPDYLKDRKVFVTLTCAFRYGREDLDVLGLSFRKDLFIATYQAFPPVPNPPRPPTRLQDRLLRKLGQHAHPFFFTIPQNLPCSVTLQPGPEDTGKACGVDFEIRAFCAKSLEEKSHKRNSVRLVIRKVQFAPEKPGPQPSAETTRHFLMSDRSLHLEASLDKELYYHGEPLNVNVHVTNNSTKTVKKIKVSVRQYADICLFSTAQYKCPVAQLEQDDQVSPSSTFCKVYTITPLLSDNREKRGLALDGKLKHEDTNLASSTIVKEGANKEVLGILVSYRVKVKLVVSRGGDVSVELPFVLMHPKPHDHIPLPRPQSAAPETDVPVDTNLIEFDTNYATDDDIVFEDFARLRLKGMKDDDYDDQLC
Experimental: The pharmacological modulation of all chemokine receptors by VUF16840 was performed according to an established method.[8]^,[23]^,[39] Briefly, β-arrestin2 recruitment to chemokine receptors in response to 1 μM VUF16840 or positive control chemokines was monitored by NanoLuc complementation assay (NanoBiT, Promega). Four hours after transfection, cells were harvested, incubated for 25 minutes at 37 °C with furimazine and distributed into a white 96-well plates (1 × 10^5 cells per well). β-Arrestin2 recruitment was then detected for 20 minutes upon treatment with 1 μM VUF16840 (or increasing concentrations ligand for experiments with CC chemokine receptor [CCR3]) using the Mithras LB940 luminometer (Berthold Technologies). To evaluate the antagonist properties of VUF16840, full agonists of each receptor were added after the 20-minute incubation with VUF16840. Signal from wells treated with full agonist only was defined as 100% activity and signals from wells treated with no agonist were used to set 0% activity.
Supplemental Figure 5 – Modulation of CCR3 receptor by VUF16840. Recruitment of β-arrestin2 towards CCR3 chemokine receptor was measured using a NLuc complementation assay in HEK293T cells. The concentration-dependent activation of the CCR3 was determined for VUF16840 and the endogenous agonist CCL13. All values depict the mean ± SD of ≥ 3 experiments.

T1 sequence (P25106 whole entry): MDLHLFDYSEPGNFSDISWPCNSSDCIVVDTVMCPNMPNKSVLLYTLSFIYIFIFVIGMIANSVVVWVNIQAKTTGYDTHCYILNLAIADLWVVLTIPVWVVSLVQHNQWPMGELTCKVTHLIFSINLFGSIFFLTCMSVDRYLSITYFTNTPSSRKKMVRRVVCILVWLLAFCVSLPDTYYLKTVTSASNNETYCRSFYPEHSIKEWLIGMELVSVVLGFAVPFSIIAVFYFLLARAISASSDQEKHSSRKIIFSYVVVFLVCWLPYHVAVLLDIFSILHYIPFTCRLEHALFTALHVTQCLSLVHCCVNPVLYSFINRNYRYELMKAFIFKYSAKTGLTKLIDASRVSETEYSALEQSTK

EC50 ([1]; NanoBiT, read-out: EC50, clathrin A/β-arrestin2 interaction) [nM] | EC50 [2] [nM] | EC50 ([3]; agonist, range over assays, read-out: pEC50 values, recruitment of β-arrestin1 and GRK2 and translocation toward early endosomes (converted)) [nM] | EC50 ([1]; * VUF16840 as inverse agonist, read-out: Clathrin A/ β-arrestin2 binding pEC50 (converted)) [nM] | IC50 ([1]; versus 100 nM VUF15485, read-out: Clathrin A/ β-arrestin2 binding, Inhibition by VUF16840 (pIC50) (converted)) [nM] | fashion of inhibition of CXCL12- and CXCL11-mediated β-arrestin2 recruitment (Schild analysis) ([2]; 60 minutes pretreatment with VUF16840) | IC50 ([2]; inverse agonist, after 30 minutes of incubation, read-out: IC50, inhibition of constitutive β-arrestin2 recruitment to hACKR3 (NanoBiT)) [nM] | IC50 ([2]; versus 100 nM VUF15485, read-out: β-arrestin2 NanoBit, Inhibition by VUF16840 (pIC50) (converted)) [nM] | IC50 ([3]; 100 nM VUF15485, range over assays, read-out: pIC50 values, inhibition of VUF15485-responses (converted)) [nM] | EC50 ([3]; inverse agonist, range over all assay setups, read-out: pEC50 values, inhibition of constitutive ACKR3-mediated responses (converted)) [nM] | EC50 ([4]; HEK293T, NanoBiT, read-out: EC50, activation of CCR3 (β-arrestin2 recruitment)) [nM] | efficacy at CCR3 relative to endogenous agonist CCL13 ([4]; β-arrestin2 recruitment) [fold] | Compound
6 | 15.8 | 7.94 to 39.8 | – | – | – | – | – | – | – | – | – | COc1cc(C(=O)N(CCC2CCCN2C)CC(C)=Cc2ccccc2F)cc(OC)c1OC (stereo not shown) [VUF15485, reference compound]
– | 15.8 | – | 10 | 50.1 | nonsurmountable | 6.3 | 20 | 2 to 50.1 | 1.58 to 10 | 200 | 1.4 | COc1ccccc1CCNC(=O)C1CN(C2CCCCC2)CCC1NC(=O)c1cc(-c2ccc(F)cc2F)on1 (stereo not shown) [VUF16840]
